Data: paper PMC2980575 (Analytical biochemistry, 2010)

Key:
HDAC8 [1] = target: T1, HDAC8 (Homo sapiens, UniProt Q9BY41); assay: Trypsin-coupled steady-state kinetic assay with Fluor de Lys substrate; assay type: biochemical
T1 sequence (Q9BY41 1-377): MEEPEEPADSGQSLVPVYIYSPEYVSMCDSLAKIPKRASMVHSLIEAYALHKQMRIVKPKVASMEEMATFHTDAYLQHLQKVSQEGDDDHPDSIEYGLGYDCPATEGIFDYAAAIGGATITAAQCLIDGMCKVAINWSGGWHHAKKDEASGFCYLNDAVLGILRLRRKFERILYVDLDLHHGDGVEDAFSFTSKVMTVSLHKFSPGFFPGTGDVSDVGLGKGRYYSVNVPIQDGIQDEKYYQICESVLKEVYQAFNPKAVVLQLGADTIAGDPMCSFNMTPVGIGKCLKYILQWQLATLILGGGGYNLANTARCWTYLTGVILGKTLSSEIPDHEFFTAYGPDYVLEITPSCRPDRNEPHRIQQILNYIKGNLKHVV

HDAC8 [2] = target: T1, HDAC8; assay: Stopped-flow transient kinetics, c-SAHA as competitive ligand; assay type: binding; settings: pH 7.5, read-out: koff (dissociation off-rate)
HDAC8 [3] = target: T1, HDAC8; assay: Fluorescence displacement method with c-SAHA as probe, Dynafit analysis
HDAC8 [4] = target: T1, HDAC8; assay: Direct fluorescence titration of c-SAHA with HDAC8; assay type: binding

## CN(C)c1ccc(C(=O)NCCCCCCC(=O)NO)cc1 [M344, 4-Dimethylamino-N-(6-hydroxycarbamoylhexyl)-benzamide]
HDAC8 [1]
  Ki: 180 ± 20 nM
HDAC8 [2]
  koff: 1.05 ± 0.12 s⁻¹
HDAC8 [3]
  Kd: 320 ± 90 nM

## Cc1cc(=O)oc2cc(NC(=O)CCCCCCC(=O)NO)ccc12 [c-SAHA, N^1-hydroxy-N^8-(4-methyl-2-oxo-2H-chromen-7-yl)octanediamide]
HDAC8 [1]
  Ki: 160 nM
HDAC8 [1]; steady-state kinetic data, c-SAHA versus SAHA
  Ki of c-SAHA lower than that of parent compound SAHA: about 5 fold
HDAC8 [4]
  Kd: 160 ± 20 nM
